{"source": "patent US6989378B2", "about": "“Testosterone derivative” (Akzo Nobel N.V., priority 1998, dated 2006)", "key": {"[1]": {"assay": "Solubility in oil solvent (amount of compound dissolved per ml of solvent)", "type": "physicochemical", "conditions": "for solubility at 15 min: oil or lipid, thermodynamic from solid, dissolved by heating in waterbath of 50° C. and Vortex shaking 15 minutes", "experimental": "About 20–30 mgs of compound were powdered and then dissolved in as little solvent as necessary to dissolve all the visible particles. Dissolution was accomplished by heating in a waterbath of 50° C. and shaking on a Vortex™ shaker for 15 minutes. The solubility was calculated by determining the amount of compound (in mg) dissolved per ml of solvent."}, "rats": {"test_system": "rats", "conditions": "anabolic and antigonadotropic effects; cited from earlier work"}, "monkeys": {"test_system": "monkeys", "conditions": "anabolic and antigonadotropic effects; cited from earlier work"}, "[2]": {"conditions": "arachis oil, read-out: solubility arachis oil"}, "[3]": {"conditions": "oleic acid, read-out: solubility oleic acid"}}, "note": "Where two headings read alike, the source gives them in different places.", "data": [{"smiles": "CCCCCCCCCCC(=O)O[C@H]1CC[C@H]2[C@H]3[C@H](CC[C@]12C)[C@H]1CCC(=O)C=C1C[C@H]3C", "note": "[MENT undecanoate, (7α,17β)-7-methyl-17-[(1-oxoundecyl)oxy]estr-4-en-3-one]", "values": [{"measurement": "solubility in arachis oil compared with the other androgens", "setting": "[1]; arachis oil, comparison in words", "value": "much better than that of any of the other androgens"}, {"measurement": "solubility at 15 min", "setting": "[1]; [2]", "value": "> 200", "unit": "mg/mL"}, {"measurement": "solubility at 15 min", "setting": "[1]; [3]", "value": "≥ 500", "unit": "mg/mL"}, {"measurement": "solubility in oleic acid compared with the known androgens", "setting": "[1]; oleic acid, comparison in words", "value": "better than expected"}]}, {"smiles": "C[C@@H]1CC2=CC(=O)CC[C@@H]2[C@H]2CC[C@]3(C)[C@@H](O)CC[C@H]3[C@@H]21", "note": "[MENT, (7α,17β)-17-hydroxy-7-methylestr-4-en-3-one]", "values": [{"measurement": "solubility at 15 min", "setting": "[1]; [2]", "value": "≤ 0.1", "unit": "mg/mL"}, {"measurement": "solubility at 15 min", "setting": "[1]; [3]", "value": "~15", "unit": "mg/mL"}, {"measurement": "androgenic potency relative to testosterone", "setting": "rats", "value": "ten times more potent than testosterone"}, {"measurement": "androgenic potency relative to testosterone", "setting": "monkeys", "value": "ten times more potent than testosterone"}]}, {"smiles": "CCCCCCCCCCC(=O)O[C@H]1CC[C@H]2[C@@H]3CCC4=CC(=O)CC[C@]4(C)[C@H]3CC[C@]12C", "note": "[testosterone undecanoate, (17β)-17-[(1-Oxoundecyl)oxy]androst-4-en-3-one]", "values": [{"measurement": "solubility at 15 min", "setting": "[1]; [2]", "value": "~45", "unit": "mg/mL"}, {"measurement": "solubility at 15 min", "setting": "[1]; [3]", "value": "200 to 250", "unit": "mg/mL"}]}, {"smiles": "C[C@]12CC[C@H]3[C@@H](CCC4=CC(=O)CC[C@@]43C)[C@@H]1CC[C@@H]2O", "note": "[testosterone]", "values": [{"measurement": "solubility at 15 min", "setting": "[1]; [2]", "value": "< 0.1", "unit": "mg/mL"}, {"measurement": "solubility at 15 min", "setting": "[1]; [3]", "value": "~25", "unit": "mg/mL"}]}]}
